Data as given in patent US10031417B2, “Compound, colorant including the same, positive photosensitive resin composition including the same and color filter” (SAMSUNG SDI CO., LTD., priority 2016, dated 2018).

Assay: Solubility measurement in diluting solvents
Format: physicochemical
Conditions: 25° C., 100 rpm, 1 hour, 0.5 g of compound added
Protocol: 0.5 g of each compound according to Synthesis Examples 1 to 3 was respectively added to diluting solvents (MeOH, CH2Cl2, cyclohexanone), each solution was stirred with a rotary mixer (Mixrotar VMR-5, Iuchi Seieido Co., Ltd.) at 25° C. and 100 rpm for 1 hour, and then, the dissolution state of each compound (the amount of the compound dissolved in the solvents) was examined, and the results are provided in Table 1.

| Structure (SMILES) | Amount of dissolved compound (CH2Cl2) [% wt %] | Amount of dissolved compound (Cyclohexanone) [% wt %] | Amount of dissolved compound (MeOH) [% wt %] |
| --- | --- | --- | --- |
| CCN(CCOC(=O)NC(C)(C)C)c1ccc2c(-c3ccccc3S(=O)(=O)[O-])c3ccc(=[N+](CC)CC)cc-3oc2c1 [Chemical Formula 5] | >7 | 3 | >7 |
| CCN(CCOC(=O)NC1CCCCC1)c1ccc2c(-c3ccccc3S(=O)(=O)[O-])c3ccc(=[N+](CC)CC)cc-3oc2c1 [Chemical Formula 6] | >7 | 3 | >7 |
| CCN(CCOC(=O)Nc1ccccc1)c1ccc2c(-c3ccccc3S(=O)(=O)[O-])c3ccc(=[N+](CC)CC)cc-3oc2c1 [Chemical Formula 7] | >7 | 2 | >7 |

Further lines, results first:

| Amount of dissolved compound (CH2Cl2) [% wt %] | Amount of dissolved compound (Cyclohexanone) [% wt %] | Amount of dissolved compound (MeOH) [% wt %] | Structure (SMILES) |
| --- | --- | --- | --- |
| >10 | 5 | >10 | CCN(CCOC(=O)NC1CCCCC1)c1ccc2c(-c3ccccc3S(=O)(=O)[O-])c3cc/c(=[N+](/CC)CCOC(=O)NC4CCCCC4)cc-3oc2c1 [Chemical Formula 9] |
| >10 | 3 | >10 | CCN(CCOC(=O)Nc1ccccc1)c1ccc2c(-c3ccccc3S(=O)(=O)[O-])c3cc/c(=[N+](/CC)CCOC(=O)Nc4ccccc4)cc-3oc2c1 [Chemical Formula 10] |
| >10 | 5 | >10 | CCN(CCOC(=O)NC(C)(C)C)c1ccc2c(-c3ccccc3S(=O)(=O)[O-])c3cc/c(=[N+](/CC)CCOC(=O)NC(C)(C)C)cc-3oc2c1 [Chemical Formula 8] |
